Test [1] concerns the target T1, 5-lipoxygenase (Homo sapiens, UniProt P09917).
T1 construct: The formation of 5-HETE in human leukocytes is considered a measure of 5-lipoxygenase activity; endogenous in cells; host or cells: leukocytes isolated from fresh human blood
T1 sequence (P09917 1-674): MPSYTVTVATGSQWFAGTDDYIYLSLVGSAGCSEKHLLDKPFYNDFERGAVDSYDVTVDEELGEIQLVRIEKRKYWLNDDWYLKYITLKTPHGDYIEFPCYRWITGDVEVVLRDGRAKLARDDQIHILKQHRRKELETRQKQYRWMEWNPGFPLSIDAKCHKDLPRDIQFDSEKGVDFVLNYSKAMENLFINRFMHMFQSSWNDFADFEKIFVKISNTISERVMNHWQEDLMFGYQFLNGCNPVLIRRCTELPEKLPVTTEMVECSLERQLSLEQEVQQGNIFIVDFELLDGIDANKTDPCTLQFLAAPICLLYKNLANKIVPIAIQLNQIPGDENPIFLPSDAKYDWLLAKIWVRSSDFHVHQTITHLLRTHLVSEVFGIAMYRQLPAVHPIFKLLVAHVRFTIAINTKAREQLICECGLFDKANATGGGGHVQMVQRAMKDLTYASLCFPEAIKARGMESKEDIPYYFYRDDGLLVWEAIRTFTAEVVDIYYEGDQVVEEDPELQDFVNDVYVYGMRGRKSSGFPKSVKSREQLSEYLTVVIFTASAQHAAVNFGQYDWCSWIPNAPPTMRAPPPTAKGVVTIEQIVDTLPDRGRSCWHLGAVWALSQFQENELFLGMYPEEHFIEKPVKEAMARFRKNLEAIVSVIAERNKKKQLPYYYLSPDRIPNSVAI
In words: 5-Lipoxygenase Assay Using Isolated Human Leukocytes (5LOA2), 5-HETE formation. In kind it is cell-based. The following applies: inhibition of 5-HETE formation, arachidonic acid 20 μM, A23187 10 μM, read-out: 5-LO(IC50 in μM). How it is done:
5-Lipoxygenase Assay Using Isolated Human Leukocytes (5LOA2)
The formation of 5-HETE in human leukocytes is considered a measure of 5-lipoxygenase activity. The protocol is described in the following.
Fresh heparinized or EDTA treated human blood is mixed with 6% dextran-3% dextrose in isotonic saline in the ratio 0.25 ml dextran solution per 1.0 ml blood. After mixing the blood is allowed to sit at room temperature for about 90 minutes while the RBC's settle. During this period, the plasma is removed with a plastic pipette to nalgens tubes.
The pellet, consisting of leukocytes and erythrocytes, is treated with 10 ml 0.87% ammonium chloride at room temperature for four minutes, lysing the red cells. At the end of four minutes the cells are diluted with a 2x volume of phosphate buffered saline, pH 7.4, and centrifuged for ten minutes. The cells are washed three times with the phosphate buffered saline. Any of the pelleted cell matter which is not easily resuspended is discarded during the washings--the material contains platelets (12-lipoxygenase activity).
After washing, the cells are resuspended in phosphate buffered saline containing 1.0 mM 'calcium and 0.5 mM magnesium. After counting, the cells are diluted to 1.5-2.0×10^7 leukocytes per milliliter.
To each polypropylene reaction tube is added 0.48 ml leukocytes in Ca-Mg phosphate buffered saline, pH 7.4; 1-5 μl test compound dissolved in DMSO and buffer; or DMSO for control tubes.
The tubes preincubate at 37° C. for five minutes.
The reaction is started by adding 20 μl of the following, 0.5 μl, 20 mM arachidonic acid--final concentration=20 μM; 1 μl, 5 mM calcium ionophore A23187--final concentration=10 μM; and 18.5 μl buffer.
The reaction proceeds for five minutes, then is stopped by adding 0.5 ml, 0.5 mM ice-cold Tris buffer, pH 8.0. The tubes are chilled on ice for ten minutes and then extracted three times with a total of 3.5 ml ethyl acetate (3.0 ml removed).
The tubes can be stored at this point. For extended storage, the tubes should be filled with nitrogen.
The ethyl acetate is evaporated with a Sorvall Speed-Vac. The residue is dissolved in ethanol. The tubes can also be stored at this point at -20° C. under nitrogen.
A portion of the ethanol solution is injected into the HPLC system for 5-HETE quantitation.
Injections are made automatically with a Waters WISP 710B. The pump is a Spectra Physics SP8700. […] An RP C-18 column is used. The solvent system is isocratic; the solvent is 70% methanol and 30% 0.01M sodium acetate, pH 5.7, pumped at 1.0 ml/min. […] Using a 15 cm Alltech Nucleosil C-18 5 μM column provides for a sample turnaround time of about 16 minutes.

In test [2] the target is T2, cyclooxygenase (Rattus norvegicus, UniProt Q63921).
T2 construct: RBL-1 intact cell cyclooxygenase IC50 values; endogenous in cells; host or cells: RBL-1 rat basophilic leukemia cells (American Type Culture Collection)
T2 sequence (Q63921 27-602): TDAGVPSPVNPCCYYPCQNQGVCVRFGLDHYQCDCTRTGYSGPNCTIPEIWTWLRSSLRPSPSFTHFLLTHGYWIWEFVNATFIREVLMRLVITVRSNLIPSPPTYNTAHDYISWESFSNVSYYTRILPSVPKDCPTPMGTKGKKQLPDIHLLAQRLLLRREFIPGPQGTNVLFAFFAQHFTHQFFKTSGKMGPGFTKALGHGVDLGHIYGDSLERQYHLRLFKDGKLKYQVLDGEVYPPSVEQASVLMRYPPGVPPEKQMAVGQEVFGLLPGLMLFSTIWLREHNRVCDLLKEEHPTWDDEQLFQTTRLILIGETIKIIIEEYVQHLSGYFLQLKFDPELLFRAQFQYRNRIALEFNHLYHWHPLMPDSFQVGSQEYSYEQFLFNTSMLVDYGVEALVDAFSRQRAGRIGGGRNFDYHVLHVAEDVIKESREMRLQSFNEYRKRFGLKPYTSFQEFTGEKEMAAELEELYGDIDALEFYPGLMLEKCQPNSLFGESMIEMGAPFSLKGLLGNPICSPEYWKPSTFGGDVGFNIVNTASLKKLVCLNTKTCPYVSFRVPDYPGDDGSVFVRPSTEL
Briefly: ARBC Whole Cell Cyclooxygenase Assay in RBL-1 cells (PGF2α RIA). In kind it is cell-based. The following applies: RBL-1 intact cell cyclooxygenase; A23187 5 μM. As for the experimental part: ARBL/ARBC Whole Cell 5-Lipoxygenase and Cyclooxygenase Assays
The rat basophilic leukemia cell line (RBL-1) was obtained from the American Type Culture Collection (Rockville, Md.).
Radioimmuno assay (RIA) kits of LTB4 and PGF2α were obtained from Amersham (Arlington Heights, Ill.) and Seragen (Boston, Mass.) respectively.
All tissue culture media were obtained from GIBO (Gran Island, N.Y.).
RBL-1 cells were grown in culture (suspension) in Eagle's minimum essential medium supplemented with 12% fetal bovine serum and 1:100 antibiotic-antimycotic mixture at 37° C. in an incubator supplied with air-5% carbon dioxide. Cells were harvested by centrifugation. They were washed with cold phosphate buffered saline pH 7.4 (PBS; NaCl, 7.1 g; Na2 HOP4, 1.15 g; KH2 PO4, 0.2 g; and KCl, 0.2 g/L). […] Calcium ionophore A23187 (5 μM) was added and cells were incubated for seven minutes at 37° C. The reaction was stopped by chilling the tubes in ice for ten minutes. Cells were separated by centrifugation and the supernatant was stored at -20°. Aliquots (100 μl) were analyzed for LTB4 and PGF2α using radioimmuno assay kits as provided by the supplier.

A word on the IC50: it is the midpoint of a concentration-inhibition curve. Turning to `COc1cc(C=Cc2cc(C=Cc3ccc(O)c(OC)c3)[nH]n2)ccc1O` [Example 1, 3,5-Bis[β-(4'-hydroxy-3'-methoxyphenyl)ethenyl]pyrazole], the IC50 in test [1] was 1 µM; in test [2], 2.5 µM.

For the compound `COc1cc(C=Cc2cc(C)n[nH]2)ccc1O` [Example 5, 3-[β-(4'-Hydroxy-3'-methoxyphenyl)ethenyl]-5-methylpyrazole], the IC50 in test [1] was 7.1 µM; in test [2] it was 13 µM.

Take `Cc1cc(C=Cc2ccc(O)c(Cl)c2)n[nH]1` [Example 7, 3-[β-(4'-Hydroxy-3'-chlorophenyl)ethenyl]-5-methylpyrazole]: the IC50 in test [1] came to 5.5 µM; in test [2], 6.8 µM.

Values taken from patent US4877881A, “Process of preparing pyrazoles, isoxazoles and analogs thereof having activity as 5-lipoxygenase inhibitors” (Warner-Lambert Company, priority 1988, dated 1989).
